Reference: patent US20120015063A1, “COMPOSITION FOR TREATMENT AND/OR PREVENTION OF SKIN DISORDER” (priority 2009, published 2012)

What was measured:
[1] = test system: carbonyl proteins; assay: Quantification of carbonyl proteins in skin tissue by Oxyblot Western blotting (Example 2); assay type: in vivo, Hos: HR-1 hairless mice; details: 0.24% glucosamine-mixed diet, UV-irradiated
Method: After one week of acclimatization, 54 six-week-old male Hos: HR-1 hairless mice were used in experiments. The below-described diet was used, and the mice were reared under conditions at 25° C. while keeping a free access to food and water. In addition, during measurements of the skin moisture content, a humidity meter was used to determine humidity in an animal room. All experiments were conducted under approval (No. 19-76) of Animal Care and Use Committee of Tokyo University of Agriculture and Technology.
Preparation of an administration diet was ordered to Oriental Yeast Co., Ltd. First, 0.072% mangosteen pericarp extract-mixed diet and 0.15% mangosteen pericarp extract-mixed diet were used. In addition, 0.24% glucosamine-mixed diet was used as a positive control, and CRF-1 diet was used as a negative control. A daily amount of mangosteen pericarp extract ingested was set to 120 mg/kg body weight for the 0.072% group, and set to 250 mg/kg body weight for the 0.15% group as a rough guideline.
A study schedule is illustrated in FIG. 1. A study period was set to 8 weeks, and the study was carried out from October to December in 2007. […] The total irradiation amount was 1.35 J. In addition, moisture content and an amount of food ingested were measured twice a week, and body weight was measured once a week. […]

[2] = test system: hairless mice of a photoaging model; assay: Histological analysis of HE-stained dorsal skin (epidermis thickness, edema), mixed-diet administration (Example 2); assay type: in vivo, Hos: HR-1 hairless mice; details: 0.24% glucosamine-mixed diet
[3] = test system: type I collagen; assay: Quantification of type I collagen in skin extract by SDS-PAGE and Western blotting (Example 2); assay type: in vivo, Hos: HR-1 hairless mice; details: 0.24% glucosamine-mixed diet, UV-irradiated
Method: After the grouping, UV-irradiated groups were irradiated with UV light three times a week. Specifically, for the first week, 1 minute of UV irradiation was carried out. For the second week, 2 minutes of UV irradiation, and for the third and fourth week, 3 minutes of UV irradiation were conducted. From the fourth week to the time of dissection completed, 4 minutes of UV irradiation were carried out.
A UVB lump GL20SE (SANKYO DENKI) was used to carry out UV irradiation having irradiation intensity of 0.3 mW/cm^2. […] Irradiation intensity was adjusted by using a digital ultraviolet light intensity meter, UV-340 (AS ONE Corporation). During irradiation, mice were left for one and a half hour in an individualized cage having a size of 9 cm×5 cm×4 cm. In order to decrease a difference in irradiation intensity for respective cages, the mice were irradiated while subjected to a rotation in every occasion.
A frozen and crushed skin was degreased using methanol for 24 hours. Then, an appropriate amount of PBS (−) containing protease inhibitors was added, and the sample was stirred with a rotator and washed twice to remove serum components, etc. […]

[4] = test system: hyaluronic acid (HA); assay: Identification of GAG in skin extract by cellulose acetate membrane electrophoresis (Example 2); assay type: in vivo, Hos: HR-1 hairless mice; details: 0.24% glucosamine-mixed diet, UV-irradiated
Method: After the grouping, UV-irradiated groups were irradiated with UV light three times a week. Specifically, for the first week, 1 minute of UV irradiation was carried out. For the second week, 2 minutes of UV irradiation, and for the third and fourth week, 3 minutes of UV irradiation were conducted. From the fourth week to the time of dissection completed, 4 minutes of UV irradiation were carried out. The total irradiation amount was 1.35 J. In addition, moisture content and an amount of food ingested were measured twice a week, and body weight was measured once a week.
A UVB lump GL20SE (SANKYO DENKI) was used to carry out UV irradiation having irradiation intensity of 0.3 mW/cm^2. […] Irradiation intensity was adjusted by using a digital ultraviolet light intensity meter, UV-340 (AS ONE Corporation). During irradiation, mice were left for one and a half hour in an individualized cage having a size of 9 cm×5 cm×4 cm. […]

[5] = test system: hairless mice of a photoaging model; assay: Skin moisture content by CORNEOMETER CM825, mixed-diet administration (Example 2); assay type: in vivo, Hos: HR-1 hairless mice; details: 0.24% glucosamine-mixed diet
[6] = test system: hairless mice, UVB irradiation; assay: Skin moisture content by CORNEOMETER CM 825, oral forced administration (Example 3); assay type: in vivo; details: 20 mg/ml collagen solution, 0.1 ml/10 g body weight orally daily, UV-irradiated (collagen (+) group)
Method: Skin moisture content was measured using CORNEOMETER® CM825 (manufactured by COURAGE+KHAZAKA electronic GMBH) twice a week, the measurement being carried out by contacting a probe onto a lumbar region of a mouse prior to UVB irradiation. The measurements were conducted five times, and the average of them was designated as a measured value.
An administration sample employed a mangosteen pericarp formulation. Specifically, a formulation having a ratio of a mangosteen pericarp extract:gum arabic=1:1 was used. One having only gum arabic was used as a control, and collagen was used as a positive control. Solutions having respective concentrations were prepared. A solution having a concentration of 0.1 ml/10 g body weight was orally administered every day during the rearing period by using a stomach tube. Two kinds (a high concentration (24 mg/ml) and a low concentration (12 mg/ml)) of a solution containing a mangosteen pericarp extract were prepared. Then, 24 mg/ml of a gum arabic solution and 20 mg/ml of a collagen solution were prepared.
After 1 week of acclimatization, grouping was conducted based on skin moisture content and viscoelasticity. […]

Row | Molecule | carbonyl protein band intensity (control (−) set to 1) [1] | thickness of the epidermis compared to control (−) ([2]; UV-irradiated) | thickness of the epidermis ([2]; UV-irradiated (GlcN (+) group)) | type I collagen band intensity (control (−) set to 1; average of α-chain and β-chain) [3] | band intensity of HA (control (−) set to 1) [4] | skin moisture content at week 8 ([5]; UV-irradiated (GlcN (+) group)) | skin moisture content compared to control (+) ([5]; UV-irradiated, weeks 7 and 8) | skin moisture content at week 7 [6]
1 | N[C@H]1C(O)O[C@H](CO)[C@@H](O)[C@@H]1O (some centres unmarked) [GlcN, glucosamine] | 1.63 | significant increase in the thickness of the epidermis | 39.46±9.56 μm | 1.25 | 0.58 | 62.96±2.78 | significant increase | –
2 | collagen | – | – | – | – | – | – | – | 68.54±2.91
